Holding throughout (format): cell-based
In test [1] the target is T1, C3aR (Homo sapiens, UniProt Q16581).
T1 sequence (Q16581 1-482): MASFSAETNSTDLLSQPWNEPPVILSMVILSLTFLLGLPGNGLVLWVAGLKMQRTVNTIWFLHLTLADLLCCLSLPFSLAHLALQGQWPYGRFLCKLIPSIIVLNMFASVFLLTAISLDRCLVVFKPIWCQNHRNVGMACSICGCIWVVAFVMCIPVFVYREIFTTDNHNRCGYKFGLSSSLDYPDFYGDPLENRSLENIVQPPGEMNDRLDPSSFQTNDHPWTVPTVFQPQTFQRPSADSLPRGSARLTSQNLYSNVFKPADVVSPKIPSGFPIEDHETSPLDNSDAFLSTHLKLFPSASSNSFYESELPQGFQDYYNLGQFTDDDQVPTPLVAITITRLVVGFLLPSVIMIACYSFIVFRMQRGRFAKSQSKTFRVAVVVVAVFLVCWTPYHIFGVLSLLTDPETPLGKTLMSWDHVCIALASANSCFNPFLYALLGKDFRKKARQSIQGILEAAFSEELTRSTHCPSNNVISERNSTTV
The test can be described thus: Intracellular Ca2+ release in human monocyte-derived macrophages (agonist mode). Further details: Concentration-dependent Ca^2+ release in human monocyte-derived macrophages (HMDMs); endogenous in cells; host or cells: primary human monocyte-derived macrophages (HMDMs). Particulars: HMDMs, n ≥ 3, ± SEM. Here is the method: (§1) HMDMs were isolated using Ficoll-paque density centrifugation (GE Healthcare Bio-Science, Uppsala, Sweden) from buffy coat (of anonymous human donors) provided by the Australian Red Cross Blood Service, Brisbane. CD14^+ monocytes were positively selected using CD14 MicroBeads (Miltenyi Biotech, Auburn, USA)[40], [41]. CD14^+ monocytes were differentiated to HMDMs using 100 ng/mL of recombinant human macrophage colony-stimulating factor (PeptroTech, Rocky Hill, USA) for 7 days in Iscove’s modified Dulbecco’s media supplemented with 10% fetal bovine serum, penicillin (100 U/mL), streptomycin (100 µg/mL) and L-glutamine (2 mM). HMDMs were supplemented after 5 days with fresh medium containing 10 ng/ml macrophage colony-stimulating factor and collected by gentle scraping on day 7.
(§2) HMDMs were seeded to a 96-well clear-bottom black-wall assay plate at a density of 5 × 10^4 cells per well and allowed to adhere overnight. Prior to assay, cells were incubated with dye-loading buffer (Hank’s balance salt solution (HBSS) buffer, 4 μM Fluo-3 AM, 25 μl Pluronic acid F-127 and 1% fetal bovine serum) for 1 h at 37 °C. Cells were then washed once with assay buffer (HBSS supplemented with 2.5 mM probenecid and 20 mM HEPES, pH 7.4). Intracellular calcium release was monitored using a fluorescence imaging plate reader (excitation 495 nm, emission 520 nm). The percentage responses were plotted against logarithmic concentrations of each test compound[42].

In test [2] the target is T1, C3aR. Briefly: Histamine secretion in human LAD2 mast cells (agonist mode). The note with it: for EC50: compound alone, 30 min, n ≥ 3, ± SEM. Further details: Concentration-dependent histamine secretion in human LAD2 mast cells; endogenous in cells; host or cells: LAD2 human mast cells. The procedure: LAD2 human mast cells (kindly provided by Dr Dean Metcalfe, National Institute of Allergy and Infectious Diseases, National Institute of Health) were cultured in StemPro®-34 Serum Free Media (Invitrogen, Australia) supplemented with StemPro®-34 nutrient, 100 U/mL penicillin, 100 μg/mL streptomycin, 2 mM GlutaMAX, and 100 ng/mL human stem cell factor (SCF). Cells were hemi-depleted weekly and were not allowed to grow beyond a density of 0.5 × 10^6/mL. This cell line was authenticated by expression of tryptase and histamine granules. For the histamine assay, 1 × 10^4 cells per well were seeded in StemPro®-34 SFM in 96-well plates for 30 min before any treatments. For agonist studies, the cells were treated with compounds prepared in media for 30 min. For antagonist studies, the cells were pre-treated with compounds prepared in SFM for 30 min before addition of C3aR agonists for another 30 min. Cells were centrifuged (500 g, 5 min, 4 °C) and cell-free supernatants were collected for measuring histamine. Histamine content was measured using the histamine EIA kit according to the manufacturer’s instructions (Abnova, Taiwan). The readings were recorded on a FLUOstar Optima (BMG LabTechnologies, Offenburg, Germany).

Test [3] concerns the target T1, C3aR. Briefly: Inhibition of hC3a-induced Ca2+ release in human monocyte-derived macrophages. Further details: Concentration-dependent Ca^2+ release in human monocyte-derived macrophages (HMDMs); endogenous in cells; host or cells: primary human monocyte-derived macrophages (HMDMs). Particulars: HMDMs, hC3a 100 nM, n ≥ 3, ± SEM. Here is the method:
as §1, §2

In general, EC50 refers to the concentration that produces a half-maximal response. A lower EC50 goes with an effect from little substance. Usually IC50 stands for the concentration at which inhibition is half-maximal.

On to `N=C(N)NCCC[C@H](NC(=O)c1csc(C(c2ccccc2)c2ccccc2)n1)C(=O)O` [Compound 1], for which the results for the EC50 in test [1] and in test [2] were 50 ± 20 nM and 110 ± 40 nM, respectively. The “Type of agonist response, histamine release” value in test [2] was “partial agonist”.

Consider `Cc1sc(C(c2ccccc2)c2ccccc2)nc1C(=O)N[C@@H](CCCNC(=N)N)C(=O)O` [Compound 2], for which the EC50 in test [1] was found to be 140 ± 60 nM; in test [2] it was 300 ± 100 nM. For the same compound, the “Type of agonist response, histamine release” value in test [2] was “full agonist response”.

In test [3], `N=C(N)NCCCC(NC(=O)c1cnc(C(c2ccccc2)c2ccccc2)s1)C(=O)O` (centres unmarked) [Compound 4] showed an IC50 of 600 ± 200 nM.

`Cc1nc(C(c2ccccc2)c2ccccc2)sc1C(=O)NC(CCCNC(=N)N)C(=O)O` (centres unmarked) [Compound 5] registered an IC50 in test [3] of 2000 ± 1100 nM.

The values above are taken from paper PMC5570900, “Exploiting a novel conformational switch to control innate immunity mediated by complement protein C3a” (Nature Communications, 2017).
